Laboratory results published in patent publication US11932645B2, “Substituted pyrazolo[1,5-a]pyrimidines and their use in the treatment of medical disorders” (Bial—R&D Investments, S.A., priority 2014, dated 2024).

Experiments:
[1] = Compound solubility in water; format: physicochemical
[2] = molecular target: T1, glucocerebrosidase (Gcase) (Homo sapiens, UniProt P04062); assay: Glucocerebrosidase (Gcase) activation assay, 4-methylumbelliferyl-beta-D-glucopyranoside substrate, with saposin C; format: biochemical; settings: 10 nM GCase, 100 nM saposin C, pH 4.7
T1 sequence (P04062 40-536): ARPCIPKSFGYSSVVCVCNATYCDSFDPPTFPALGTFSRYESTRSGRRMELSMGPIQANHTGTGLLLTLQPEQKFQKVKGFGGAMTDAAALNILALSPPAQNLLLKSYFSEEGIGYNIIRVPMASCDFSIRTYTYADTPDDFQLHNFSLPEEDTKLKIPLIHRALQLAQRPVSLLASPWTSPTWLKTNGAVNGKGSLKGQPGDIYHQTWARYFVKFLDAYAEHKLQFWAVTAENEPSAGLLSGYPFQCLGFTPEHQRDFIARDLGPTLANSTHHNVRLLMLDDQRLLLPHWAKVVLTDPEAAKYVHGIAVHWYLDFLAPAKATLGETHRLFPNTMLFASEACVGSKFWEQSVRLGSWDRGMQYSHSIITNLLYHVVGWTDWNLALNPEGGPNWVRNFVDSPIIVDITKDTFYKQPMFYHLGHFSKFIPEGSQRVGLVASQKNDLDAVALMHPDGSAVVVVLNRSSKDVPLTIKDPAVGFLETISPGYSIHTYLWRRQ
Description: The ability of exemplary compounds to activate glucocerebrosidase (Gcase) was measured.
A 484 μL aliquot of a 1.0 mg/mL solution of phosphatidylserine (PS) (Sigma P7769) in chloroform was evaporated under a stream of nitrogen for 1 hour. The lipid film was dissolved over 4 minutes of vigorous vortexing in 40 mL of 176 mM K2HPO4/50 mM citric acid (pH 4.7) containing 7.5 μL of triton X-100, resulting in a mixed micellar preparation with a composition of 0.32 mM triton and 0.37 mol % PS. 4-Methylumbelliferyl-beta-D-glucopyranoside (ACROS-337025000) was dissolved in the micellar solution to a final concentration of 2 mM for use as the reaction substrate.
Test compounds were diluted to the desired concentrations with dimethylsulfoxide (DMSO) from 10 mM stocks, and 0.41 μL of the DMSO compound mixture was added to 100 μL of micellar solution containing 10 nM GCase and 100 nM saposin C (Enzo ALX-201-262-C050). Pre-incubation was allowed to occur for 30 minutes at room temperature, after which the reaction was initiated by combining 25 μL of substrate solution with 25 μL of compound/GCase/saposin mixture. The reaction proceeded for 15 minutes at room temperature and was stopped by adding 150 μL of 1M glycine, pH 12.5. The endpoint of the reaction was monitored by measuring fluorescence intensity (excitation: 365 nm; emission: 440 nm) on a SpectraMax i3 instrument (Molecular Devices). Test compounds were screened at 1.0 and 0.1 μM final concentration, and subsequent 8-point dose response curves were obtained using 3-fold dilutions from a maximum final concentration of 5 μM.
For experiments in which the test compound was used at a concentration of 1.0 μM, the symbol “+” indicates less than 30% Gcase activation; the symbol “++” indicates Gcase activation in the range of 30% up to 60%; and the symbol “+++” indicates Gcase activation greater than 60%. For experiments in which the test compound was used at a concentration of 0.1 μM, the symbol “*” indicates less than 10% Gcase activation; the symbol “**” indicates Gcase activation in the range of 10% up to 20%; and the symbol “***” indicates greater than 20% Gcase activation.

Compound Solubility in Water [1] [µg/mL] | Percent Gcase Activation 0.1 μM Test Compound [2] | Percent Gcase Activation 1 μM Test Compound [2] | Structure (SMILES)
– | * (less than 10% Gcase activation) | + (less than 30% Gcase activation) | Cc1cc(C)n2ncc(C(=O)Nc3ccc(C(C)O)cc3)c2n1 (centres unmarked) [III-35]
– | *** (greater than 20% Gcase activation) | +++ (Gcase activation greater than 60%) | Cc1cc(C)n2ncc(C(=O)Nc3ccc(-c4cccs4)nc3)c2n1 [III-20]
– | * (less than 10% Gcase activation) | + (less than 30% Gcase activation) | Cc1cc(C)n2ncc(C(=O)Nc3ccc(-c4ncc[nH]4)cc3)c2n1 [III-30]
– | * (less than 10% Gcase activation) | +++ (Gcase activation greater than 60%) | Cc1cc(C)n2ncc(C(=O)Nc3ccc(-c4ccon4)cc3)c2n1 [III-9]
– | * (less than 10% Gcase activation) | + (less than 30% Gcase activation) | Cc1cc(C)n2ncc(C(=O)Nc3ccc(CCC(=O)O)cc3)c2n1 [III-36]

The remaining lines, values behind:

Structure (SMILES) | Compound Solubility in Water [1] [µg/mL] | Percent Gcase Activation 0.1 μM Test Compound [2] | Percent Gcase Activation 1 μM Test Compound [2]
Cc1cc(C)n2ncc(C(=O)Nc3ccc(-c4ccc[nH]4)cc3)c2n1 [III-57] | <1.5 | ** (Gcase activation in the range of 10% up to 20%) | + (less than 30% Gcase activation)
Cc1cc(C)n2ncc(C(=O)Nc3ccc(-c4cnsc4)cc3)c2n1 [III-16] | – | ** (Gcase activation in the range of 10% up to 20%) | +++ (Gcase activation greater than 60%)
COCC#Cc1ccc(NC(=O)c2cnn3c(C)cc(C)nc23)cc1 [III-4] | – | ** (Gcase activation in the range of 10% up to 20%) | +++ (Gcase activation greater than 60%)
CCCCCOc1ccc(NC(=O)c2cnn3c(C)cc(C)nc23)cc1 [III-32] | – | ** (Gcase activation in the range of 10% up to 20%) | +++ (Gcase activation greater than 60%)
CO[C@H]1CC[C@@H](C(C)(C)NC(=O)c2cnn3c(C)cc(C)nc23)CC1 [III-72] | – | * (less than 10% Gcase activation) | +++ (Gcase activation greater than 60%)
Cc1cc(C)n2ncc(C(=O)Nc3ccc(-c4cscn4)cc3)c2n1 [III-27] | – | ** (Gcase activation in the range of 10% up to 20%) | +++ (Gcase activation greater than 60%)
Cc1cc(C)n2ncc(C(=O)Nc3ccc(Cl)c(-c4cnco4)c3)c2n1 [III-53] | – | ** (Gcase activation in the range of 10% up to 20%) | +++ (Gcase activation greater than 60%)
COCC#Cc1ccc(NCc2cnn3c(C)cc(C)nc23)cc1 [III-29] | – | * (less than 10% Gcase activation) | + (less than 30% Gcase activation)
C#Cc1ccc(NC(=O)c2cnn3c(C)cc(NC)nc23)cc1 [III-77] | – | *** (greater than 20% Gcase activation) | +++ (Gcase activation greater than 60%)
Cc1cc(C)n2ncc(C(=O)Nc3ccc4[nH]c(-c5ccco5)nc4c3)c2n1 [III-49] | – | * (less than 10% Gcase activation) | + (less than 30% Gcase activation)
C#Cc1ccc(NC(=O)c2cnn3c(C)cc(C)nc23)nc1 [III-1] | – | * (less than 10% Gcase activation) | ++ (Gcase activation in the range of 30% up to 60%)
Cc1cc(Cl)nc2c(C(=O)NC(C)(C)c3ccc(Cl)cc3)cnn12 [III-69] | – | *** (greater than 20% Gcase activation) | +++ (Gcase activation greater than 60%)
CCCCCO[C@H]1CC[C@H](NC(=O)c2cnn3c(C)cc(C)nc23)CC1 [III-59] | – | ** (Gcase activation in the range of 10% up to 20%) | +++ (Gcase activation greater than 60%)
Cc1cc(C)n2ncc(C(=O)Nc3ccc(-c4ccc[nH]4)cc3)c2n1 [III-76] | 0.01 | ** (Gcase activation in the range of 10% up to 20%) | ++ (Gcase activation in the range of 30% up to 60%)
C#Cc1ccc(NC(=O)c2cnn3c(NC)cc(C)nc23)cc1 [III-78] | – | ** (Gcase activation in the range of 10% up to 20%) | + (less than 30% Gcase activation)
Cc1cc(C)n2ncc(C(=O)N[C@@H](C)c3ccccc3F)c2n1 [III-60] | – | * (less than 10% Gcase activation) | +++ (Gcase activation greater than 60%)
